Measured values taken from BindingDB's records for patent US20230331683 (University of Virginia Patent Foundation, 2023).

Biological target: T1, Sphingosine-1-phosphate transporter SPNS2 (Mus musculus, UniProt Q91VM4)
T1 sequence (Q91VM4 whole entry): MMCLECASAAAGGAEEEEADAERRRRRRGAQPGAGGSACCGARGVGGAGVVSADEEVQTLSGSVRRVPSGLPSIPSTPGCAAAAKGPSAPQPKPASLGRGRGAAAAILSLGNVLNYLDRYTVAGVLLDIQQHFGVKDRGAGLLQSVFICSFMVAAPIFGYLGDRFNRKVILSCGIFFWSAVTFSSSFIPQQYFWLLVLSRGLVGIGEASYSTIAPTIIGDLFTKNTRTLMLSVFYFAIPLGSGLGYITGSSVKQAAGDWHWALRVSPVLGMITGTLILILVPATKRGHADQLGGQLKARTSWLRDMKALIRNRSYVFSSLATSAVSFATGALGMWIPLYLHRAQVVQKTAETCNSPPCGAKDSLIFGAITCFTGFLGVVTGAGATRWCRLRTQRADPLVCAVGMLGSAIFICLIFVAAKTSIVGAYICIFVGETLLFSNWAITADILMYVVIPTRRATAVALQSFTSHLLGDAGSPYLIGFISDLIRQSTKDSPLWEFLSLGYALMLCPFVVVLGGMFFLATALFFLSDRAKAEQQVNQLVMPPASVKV
Assay: S1P Transporter Assay
Procedure: Transporter assays are vectorial and therefore require measurement of the transported analyte in different compartments. The S1P transporter SPNS2 only exports S1P, which obviates measuring uptake of S1P into transporter-expressing cells. Thus, transporter activity was determined by quantifying S1P release from whole cells expressing SPNS2. SPNS2 inhibitor potency was assessed using whole cell assays. HeLa cells expressing mouse SPNS2 were used to determine inhibitor potency (IC50). Cells were plated onto 12 well plates and assayed when the cell monolayers became confluent. Cell growth media (RPMI-1640 containing 10% fetal bovine serum) was replaced with 2 mL of serum-free media (RPMI-1640) containing fatty acid free bovine serum albumin (BSA) (0.2 % w/v) and supplemented with 4-deoxypyridoxine (DOP) (1 mM), NaF (2 mM), Na3VO4 (0.2 mM) to inhibit S1P degradation. Test articles (1 × 10-9 - 1 × 10^-4 M) were assayed in duplicate or triplicate. After 18 hours, media was collected, an internal recovery standard (0.005 mL of 5 × 10^-7 M deuterated (d7) S 1P in methanol) was added, the BSA was precipitated with trichloroacetic acid and the bound S1P extracted with methanol. S1P and S1P-d7 were measured by liquid chromatography mass spectrometry.

Compound | IC50
CCCCCCCCCCc1ccc(C(=O)N(C)[C@@H]2CCNC2)cc1 [US20230331683, Compound 32] | > 2 µM
CCCCCCCCCCc1ccc2nc(CCCN)oc2c1 [US20230331683, Compound 8e] | > 2 µM
CCCCCCCCCCc1ccc2oc(N[C@@H]3CCNC3)nc2c1 [US20230331683, Compound 13k] | < 2 µM
CCCCCCCCCCc1ccc(NC(=O)[C@@H]2CCN(C(=N)N)C2)cc1 [US20230331683, Compound 4b] | < 2 µM
CCCCCCCCc1ccc2cc(NC(=O)CCCN)ccc2c1 [US20230331683, Compound 2k] | > 2 µM
CCCCCCCCCCc1ccc2oc(N[C@H]3CCNC3)nc2c1 [US20230331683, Compound 13j] | < 2 µM
CCCCCCCCCCc1ccc2nc(N[C@@H]3CCNC3)oc2c1 [US20230331683, Compound 13t] | < 2 µM
CCCCCCCCCCc1ccc2nc(N[C@H]3CCNC3)oc2c1 [US20230331683, Compound 13s] | < 2 µM

Continued, values first:

IC50 | Compound
< 2 µM | CCCCCCCCCCc1ccc2oc(NC[C@@H]3CCNC3)nc2c1 [US20230331683, Compound 37]
< 2 µM | CCCCCCCCCCc1ccc(C(=O)N[C@H]2CCNC2)cc1 [US20230331683, Compound 26a]
< 2 µM | CCCCCCCCCCc1ccc2oc(NC[C@H]3CCNC3)nc2c1 [US20230331683, Compound 38]
< 2 µM | CCCCCCCCCCc1ccc(C(=S)N[C@@H]2CCNC2)cc1 [US20230331683, Compound 33]
< 2 µM | CCCCCCCCCCc1ccc(C(=O)N[C@@H]2CCNC2)cc1 [US20230331683, Compound 26b]
